Source: patent publication US7923004B2 (priority 2006, dated 2011)

How the values were obtained:
Format in all cases: cell-based
[1] = Cell Titer-Glo Cell Viability Assay, genotype 1a cells; conditions: human, En5-3/Htat2ANeo (HCV genotype 1a replicon) cells, HCV-1a assays, read-out: Cytotoxicity* (CC50)
Description: (§1) Cell Seeding and Compound Treatment: Huh-Luc-Neo (Genotype 1b) or En5-3/Htat2ANeo (Genotype 1a) cells are seeded at 5000-7000/well in an opaque-walled 96 plate with Growth Medium (DMEM phenol red free+PS+2 mM glutamine; 100 ul/well). The compounds to be tested for inhibition of cell viability are added to the experimental wells so as to generate a dose response curve (8-9 concentrations, 10 μl/well at 10× assay concentration) and the cells are then incubated (5% CO2, 37° C.) for 72 h.
(§2) Reagent Preparation and Assay: After completion of the incubation period the cell viability measurements are made using the Cell Titre Glo Assay (Promega) according to the manufacturer's recommended protocol. Briefly, the CellTiter-Glo Buffer is thawed and equilibrated to room temperature prior to use. The lyophilized CellTiter-Glo Substrate is also equilibrated to room temperature prior to use. 10 ml of CellTiter-Glo Buffer is then transferred to 1 vial of CellTiter-Glo Substrate and mixed gently with a Vortex. 100 μl of CellTiter-Glo Assay reagent (CellTiter-Glo Buffer+CellTiter-Glo Substrate Mixture) is added to each well. The well contents are mixed for 5 min. on an orbital shaker at room temperature to induce cell lysis and the luminescence is then measured using a luminometer.

[2] = system: HCV genotype 1a replicon (En5-3/Htat2ANeo cells); assay: HCV-1a Replicon RNA (Taqman) inhibition assay; conditions: Hepatitis C virus, 72 h
[3] = Cell Titer-Glo Cell Viability Assay, genotype 1b cells; conditions: human, Huh-Luc-Neo (HCV genotype 1b replicon) cells, HCV genotype 1b assays, read-out: Cytotoxicity* (CC50)
Description: as §1, §2

[4] = system: HCV genotype 1b replicon (Huh-Luc-Neo cells); assay: HCV Replicon Luciferase Assay; conditions: Hepatitis C virus, 72 h, read-out: HCV-1b Replicon Inhibition*, Luciferase (EC50)
[5] = system: HCV genotype 1b replicon (Huh-Luc-Neo cells); assay: HCV Replicon RNA (Taqman) Assay, genotype 1b; conditions: Hepatitis C virus, 72 h, read-out: HCV-1b Replicon Inhibition*, Taqman (EC50)
[6] = Huh-Luc-Neo cells, genotype 1b, HCV RNA

Compound | CC50 at 72 h [1] [µM] | EC50 [2] [nM] | CC50 at 72 h [3] [µM] | EC50 ([4]; Huh-Luc-Neo cells, genotype 1b) [nM] | EC50 [5, 6] [nM] | other results
Cn1nccc1C(=O)N[C@@H](C(=O)N1CCOC[C@H]1C(=O)Nc1ccc(C#Cc2cn(CCC#N)nc2-c2cc(Cl)ccc2O)cc1)c1ccccc1 [Compound 1] | > 33.3 | < 1000 |  |  |  | 
N#CCCn1cc(C#Cc2ccc(NC(=O)[C@@H]3COCCN3C(=O)[C@H](NC(=O)c3cnccn3)c3ccccc3)cc2)c(-c2cc(Cl)ccc2O)n1 [Compound 2] | > 33.3 | < 1000 |  |  |  | 
N#CCCn1cc(C#Cc2ccc(NC(=O)[C@@H]3COCCN3C(=O)[C@H](NC(=O)NC3CC3)c3ccccc3)cc2)c(-c2cc(Cl)ccc2O)n1 [Compound 3] | > 33.3 | < 1000 |  |  |  | 
N#CCCn1cc(C#Cc2ccc(NC(=O)[C@@H]3COCCN3C(=O)[C@H](NC(=O)N3CCOCC3)c3ccccc3)cc2)c(-c2cc(Cl)ccc2O)n1 [Compound 4] | > 33.3 | < 1000 |  |  |  | 
Cn1cc(C#Cc2ccc(NC(=O)[C@@H]3COCCN3C(=O)[C@H](NC(=O)c3ccc(C#N)cc3)c3ccccc3)cc2)c(-c2cc(Cl)ccc2O)n1 [Compound 5] | > 33.3 | < 1000 |  |  |  | 
CC(C)n1cc(C#Cc2ccc(NC(=O)[C@@H]3COCCN3C(=O)[C@H](NC(=O)c3ccccc3)c3ccccc3)cc2)c(-c2cc(Cl)ccc2O)n1 [Compound 6] | > 33.3 | < 1000 |  |  |  | 
N#CCCn1cc(C#Cc2ccc(NC(=O)[C@@H]3COCCN3C(=O)[C@H](NC(=O)N3CCC(=O)CC3)c3ccccc3)cc2)c(-c2cc(Cl)ccc2O)n1 [Compound 7] | > 33.3 | < 1000 |  |  |  | 
C[C@@H]1CN(C(=O)N[C@@H](C(=O)N2CCOC[C@H]2C(=O)Nc2ccc(C#Cc3cn(CCC#N)nc3-c3cc(Cl)ccc3O)cc2)c2ccccc2)C[C@H](C)O1 [Compound 8] | > 33.3 | < 1000 |  |  |  | 
Cn1cc(C#Cc2ccc(NC(=O)[C@@H]3COCCN3C(=O)[C@H](NC(=O)c3cccs3)c3ccccc3)cc2)c(-c2cc(Cl)ccc2O)n1 [Compound 9] | > 33.3 | < 1000 |  |  |  | 
Cn1cc(C#Cc2ccc(NC(=O)[C@@H]3COCCN3C(=O)[C@H](NC(=O)N3CCC3)c3ccccc3)cc2)c(-c2cc(Cl)ccc2O)n1 [Compound 10] | > 33.3 | < 1000 |  |  |  | 
CC(C)n1cc(C#Cc2ccc(NC(=O)[C@@H]3COCCN3C(=O)[C@H](NC(=O)NC(C)(C)C)c3ccccc3)cc2)c(-c2cc(Cl)ccc2O)n1 [Compound 11] | > 33.3 | < 1000 |  |  |  | 
COCC(=O)N[C@@H](C(=O)N1CCOC[C@H]1C(=O)Nc1ccc(C#Cc2cn(C)nc2-c2cc(Cl)ccc2O)cc1)c1ccccc1 [Compound 12] | > 33.3 | < 1000 |  |  |  | 
N#CCCn1cc(C#Cc2ccc(NC(=O)[C@@H]3COCCN3C(=O)[C@H](NC(=O)c3ccccc3)c3ccccc3)cc2)c(-c2cc(Cl)ccc2O)n1 [Compound 13] | > 33.3 | < 1000 |  |  |  | 
COC(=O)C1CCCN1C(=O)N[C@@H](C(=O)N1CCOC[C@H]1C(=O)Nc1ccc(C#Cc2cn(CCC#N)nc2-c2cc(Cl)ccc2O)cc1)c1ccccc1 (stereo partly shown) [Compound 14] | > 33.3 | < 1000 |  |  |  | 
N#CCCn1cc(C#Cc2ccc(NC(=O)[C@@H]3COCCN3C(=O)[C@H](NC(=O)N3CCC3)c3ccccc3)cc2)c(-c2cc(Cl)ccc2O)n1 [Compound 15] | > 33.3 | < 1000 |  |  |  | 
CN1CCN(C(=O)N[C@@H](C(=O)N2CCOC[C@H]2C(=O)Nc2ccc(C#Cc3cn(CCC#N)nc3-c3cc(Cl)ccc3O)cc2)c2ccccc2)CC1 [Compound 16] | 1 to 10 | < 1000 |  |  |  | 
Cc1ccc(O)c(-c2nn(C)cc2C#Cc2ccc(NC(=O)[C@H]3CS(=O)(=O)CCN3C(=O)[C@H](NC(=O)OC(C)(C)C)c3ccccc3)cc2)c1 [Compound 46 (Table 1)] |  |  | > 100 | < 1000 | < 1000 | 
Cn1cc(C#Cc2ccc(NC(=O)[C@@H]3COCCN3C(=O)[C@H](NS(=O)(=O)C3CC3)c3ccccc3)cc2)c(-c2cc(Cl)ccc2O)n1 [Compound 55] |  |  | 10 to 100 | < 1000 | < 1000 | 

Compound | CC50 at 72 h [1] [µM] | EC50 [2] [nM] | CC50 at 72 h [3] [µM] | EC50 ([4]; Huh-Luc-Neo cells, genotype 1b) [nM] | EC50 [5, 6] [nM] | other results
Cc1ccc(O)c(-c2nn(C)cc2C#Cc2ccc(NC(=O)C3CCCCN3C(=O)C(c3ccccc3)N(C)C(=O)OC(C)(C)C)cc2)c1 (stereo not shown) [Compound 56] |  |  | 10 to 100 | 1000 to 10000 | 1000 to 10000 | 
Cc1ccc(OCC(N)=O)c(-c2nn(C)cc2C#Cc2ccc(NC(=O)C3CCCCN3C(=O)[C@H](Cc3ccccc3)NC(=O)OC(C)(C)C)cc2)c1 (stereo partly shown) [Compound 58] |  |  | 10 to 100 |  |  | EC50 [4]: 1000 to 10000 nM; EC50 [5]: > 100000 nM
CC(=O)Oc1ccc(C)cc1-c1nn(C)cc1C#Cc1ccc(NC(=O)C2CCCCN2S(=O)(=O)c2cccs2)cc1 (stereo not shown) [Compound 63] |  |  | > 100 | 1000 to 10000 | 1000 to 10000 | 
Cc1ccc(O)c(-c2nn(C)cc2C#Cc2ccc(NC(=O)[C@@H]3CCCCN3C(=O)[C@@H](NC(=O)OC(C)(C)C)c3ccccc3)cc2)c1 [Example 17] |  |  | > 100 | < 1000 | < 1000 | 
Cn1cc(C#Cc2ccc(NC(=O)[C@@H]3COCCN3C(=O)[C@H](NC(=O)N3CCOCC3)c3ccccc3)cc2)c(-c2cc(Cl)ccc2O)n1 [Example 17] | > 33.3 |  |  |  |  | EC50 ([2]; GETYPE1A): < 1000 nM
CN(C)CCn1cc(C#Cc2ccc(NC(=O)[C@@H]3COCCN3C(=O)[C@H](NC(=O)NOC(C)(C)C)c3ccccc3)cc2)c(-c2cc(Cl)ccc2O)n1 [Example 18] | 1 to 10 | 1000 to 10000 |  |  |  | 
Cc1ccc(O)c(-c2nn(C)cc2C#Cc2ccc(NC(=O)C3CCCCN3C(=O)[C@H](Cc3ccccc3)NC(=O)NC(C)(C)C)cc2)c1 (stereo partly shown) [Example 18] |  |  | > 100 | < 1000 | < 1000 | 
Cc1ccc(O)c(-c2nn(C)cc2C#Cc2ccc(NC(=O)C3CCCCN3C(=O)[C@H](Cc3ccccc3)N(C)C(=O)OC(C)(C)C)cc2)c1 (stereo partly shown) [Example 19] |  |  | 10 to 100 | < 1000 | < 1000 | 
Cc1ccc(O)c(-c2nn(C)cc2C#Cc2ccc(NC(=O)[C@@H]3COCCN3C(=O)[C@H](NC(=O)N3CCOCC3)c3ccccc3)cc2)c1 [Example 19] | > 33.3 | < 1000 |  |  |  | 
Cn1cc(C#Cc2ccc(NC(=O)[C@H]3CCCCN3C(=O)C(NC(=O)OC(C)(C)C)c3ccccc3)cc2)c(-c2cc(Br)ccc2O)n1 (stereo partly shown) [Example 20] |  |  | 10 to 100 | < 1000 | < 1000 | 
N#CCCn1cc(C#Cc2ccc(NC(=O)[C@@H]3COCCN3C(=O)[C@H](NC(=O)N3CCNC(=O)C3)c3ccccc3)cc2)c(-c2cc(Cl)ccc2O)n1 [Example 20] | > 33.3 | < 1000 |  |  |  | 
Cc1ccc(O)c(-c2nn(C)cc2C#Cc2ccc(NC(=O)C3CCCCN3C(=O)[C@]3(NC(=O)OC(C)(C)C)C[C@@H]3c3ccccc3)cc2)c1 (stereo partly shown) [Example 21] |  |  | 10 to 100 | < 1000 | < 1000 | 
Cn1cc(C#Cc2ccc(NC(=O)[C@@H]3COCCN3C(=O)[C@H](NC(=O)OC(C)(C)C)c3ccccc3)cc2)c(-c2cc(F)ccc2O)n1 [Example 47] |  |  | > 100 | < 1000 | < 1000 | 
Cn1cc(C#Cc2ccc(NC(=O)[C@@H]3CCCCN3C(=O)[C@H](NC(=O)OC(C)(C)C)c3cccs3)cc2)c(-c2cc(Br)ccc2O)n1 [Example 48] |  |  | > 100 | < 1000 | < 1000 | 
Cn1cc(C#Cc2ccc(NC(=O)[C@@H]3CCCCN3C(=O)[C@@H](NC(=O)OC(C)(C)C)c3ccsc3)cc2)c(-c2cc(Br)ccc2O)n1 [Example 49] |  |  | 10 to 100 | < 1000 | < 1000 | 
Cc1ccc(O)c(-c2nn(C)cc2C#Cc2ccc(NC(=O)[C@@H]3CCCCN3C(=O)[C@H](NC(=O)OC(C)(C)C)c3cccs3)cc2)c1 [Example 50] |  |  | > 100 | < 1000 | < 1000 | 
Cn1cc(C#Cc2ccc(NC(=O)[C@@H]3COCCN3C(=O)[C@H](NC(=O)OC(C)(C)C)c3ccccc3)cc2)c(-c2cc(Cl)ccc2O)n1 [Example 51] |  |  | 10 to 100 | < 1000 | < 1000 | 
